Test results taken from patent publication US4963570A, “1-(acetylaminophenyl)-2-aminopropanone derivatives and pharmaceutical compositions thereof” (Laboratoire L. Lafon, priority 1983, dated 1990).
Entries after “also recorded” stand apart in the source; their conditions may differ. Where a name gives a salt, the structure may show the parent alone.

How the values were obtained:
mice [1] = test: overall behavior and reactivities in mice; assay type: in vivo, mouse; conditions: mice, i.p.; dose not stated
Description: (§1) Groups of three animals are observed before and then 0.25 hour, 0.50 hour, 1 hour, 2 hours, 3 hours and 24 hours after the administration of CRL 41 224.

mice [2] = test: interaction with barbital; assay type: in vivo, mouse; conditions: for sleep induced by barbital: i.p., dose not stated
Description: Half an hour after the administration of CRL 41 224, groups of 10 mice receive an intraperitoneal injection of barbital (220 mg/kg).

mice [3] = test: four plate test, traction and electric shock; assay type: in vivo, mouse; conditions: i.p.
Description: The test is performed on groups of 10 mice 30 minutes after the administration of CRL 41 224.

mice [4] = test: action on the spontaneous motility (actimeter); assay type: in vivo, mouse; conditions: for spontaneous motility / motor activity: mice, i.p., dose not stated
Description: 0.5 hour after they have received CRL 41 224, the mice (6 per dose, 12 control animals) are placed in an actimeter, where their motility is recorded for 30 minutes.

mice [5] = test: interaction with reserpine; assay type: in vivo, mouse; conditions: i.p.; dose not stated
Description: Four hours after the intraperitoneal injection of 2.5 mg/kg of reserpine, groups of 6 mice receive CRL 41 224.

rats [6] = test: interaction with apomorphine in rats; assay type: in vivo, rat; conditions: i.p., dose not stated
Description: CRL 41 224 is administered to groups of 6 rats 0.5 hour before the subcutaneous injection of 0.5 mg/kg of apomorphine.

CNS = test: overall neuropsychopharmacological (CNS) profile; assay type: in vivo, mouse; rat; conditions: i.p., mice and rats; dose not stated
Description: The neuropsychopharmacological study of CRL 41 219 was carried out as indicated above for CRL 41 224.
The neuropsychopharmacological study of CRL 41 220 was carried out in accordance with the procedures given above for CRL 41 224.

mice [7] = test: motility reduced by habituation to the enclosure; assay type: in vivo, mouse; conditions: i.p., dose not stated
Description: After they have stayed in the actimeters for 18 hours, the mice (6 per dose, 12 control animals) receive CRL 41 224. They are immediately returned to their respective enclosures and, half an hour later, their motility is recorded for 30 minutes.

rats [8] = test: overall behavior and reactivities in rats; assay type: in vivo, rat; conditions: i.p., dose not stated
Description: as §1

mice [9] = test: toxicity to grouped mice compared with isolated mice; assay type: in vivo, mouse
mice [10] = test: action on the behavioral despair; assay type: in vivo, mouse; conditions: i.p., dose not stated
Description: Half an hour after they have received CRL 41 224, groups of 6 mice are placed in a beaker filled with water to a height of 6 cm. The total period of immobility between the 2nd and 6th minutes following immersion is noted.

man = test: clinical trials; assay type: in vivo, human; conditions: tablets or gelatine capsules 2 mg, 2 to 3 per day
mice [11] = test: motility reduced by hypoxic aggression; assay type: in vivo, mouse; conditions: i.p., dose not stated
Description: Half an hour after they have received CRL 41 224, the mice (10 per dose, 20 control animals) are subjected to acute hypobaric anoxia [pressure reduction of 600 mm Hg (i.e. about 8×10^4 Pa) in 90 seconds; release of vacuum in 45 seconds] and are then placed in an actimeter, where their motility is recorded for 10 minutes.

rats [12] = test: interaction with amphetamine; assay type: in vivo, rat; conditions: rats, i.p.; dose not stated
Description: Amphetamine (2 mg/kg) is injected intraperitoneally into groups of 6 rats 30 minutes after the administration of CRL 41 224.

[13] = tested on: peripheral α-adrenergic stimulation; test: signs of peripheral adrenergic stimulation; assay type: in vivo, mouse; rat; conditions: i.p.; dose not stated
Description: as §1

rats [14] = test: action on stereotypies in rats (α-methyltyrosine, haloperidol, reserpine); conditions: i.p.
mice [15] = test: interaction with apomorphine in mice; assay type: in vivo, mouse; conditions: i.p.; dose not stated
Description: Groups of 6 mice receive CRL 41 224 0.5 hour before the subcutaneous injection of 1 or 16 mg/kg of apomorphine.

mice [16] = test: interaction with oxotremorine; assay type: in vivo, mouse; conditions: i.p.; dose not stated
Description: CRL 41 224 is administered to groups of 6 mice 0.5 hour before the intraperitoneal injection of 0.5 mg/kg of oxotremorine.

immunological properties = test: immunological properties, overall; assay type: in vivo; conditions: dose not stated
Description: The present 1-(acetylaminophenyl)-2-aminopropanone derivatives are useful in therapy. They all act on the CNS, more precisely as antidepressants. They have a stimulant or excitant component in their neuropsychopharmacological profile.

male mice = test: acute toxicity, intraperitoneal (lethal doses); assay type: in vivo, mouse; conditions: i.p.
Description: By intraperitoneal administration to male mice, the LD-30 (lethal dose for 30% of the animals tested) is of the order of 128 mg/kg and the LD-50 is of the order of about 200 mg/kg.

[17] = tested on: spleen cells expressing a direct IgM antibody response; test: test for cells forming lysis areas (PFC IgM, Cunningham); assay type: in vivo, mouse; conditions: oral; for activity index I / counts ± e.s.m. (lysis areas per spleen): mice
Description: Immunological assays were carried out in order to point out the interest of CRL 41 240 as an immunomodulating agent. Specifically, the test used was the so-called test for cells forming lysis areas, described by A. J. […] et al. ("Further improvements in the plaque technique for detecting simple antibody forming cells"), Immunology 14, pages 599-601 (1968).
The test for cells forming lysis areas (or PFC IgM) explores the humoral immunity. Four days after immunization with a T-dependent antigen (in this case red blood corpuscles of sheep), the spleen cells expressing a direct IgM antibody response are counted. The mice used for this purpose are conventional female OF1 mice devoid of specific pathogenic organisms, weighing from 20 to 30 g and divided up into a control group of 14 animals and groups each containing 7 animals per dose and per product to be studied, administered orally on the same day as the antigen. An activity index I is calculated for each dose of product according to the following equation: [formula]
This test is performed at least twice for each dose of test product [C(control amimals), 0.01, 0.1, 10 and 100 mg/kg] and a statistical study is undertaken using the Student t test after variance analysis on the number of lyses per spleen.

mice [18] = test: asphyxiant anoxia (gallamine triiodoethylate); assay type: in vivo, mouse; conditions: i.p., high dose
Description: Groups of 10 mice receive CRL 41 224 half an hour before the intraperitoneal administration of 32 mg/kg of gallamine triiodoethylate (reference curarizing agent).

[19] = tested on: spleen cells expressing a direct IgM antibody response; test: test for cells forming lysis areas (PFC IgM, Cunningham); assay type: in vivo, mouse; conditions: mice, oral, 1 mg/kg

SMILES | excitation in mice (mice [1]) | sleep induced by barbital (mice [2]) | spontaneous motility / motor activity (mice [4]) | hypothermia induced by reserpine (mice [5]) | ptosis induced by reserpine (mice [5]) | stereotypies induced by apomorphine (rats [6]) | overall action on the CNS (CNS) | motor activity after habituation to the enclosure (mice [7]) | stereotype movements in rats (rats [8]) | period of immobility or "despair" (mice [10]) | motor recovery after hypoxic aggression (mice [11]) | stereotypies induced by amphetamine (rats [12]) | exophthalmos [13] | mydriasis [13] | peripheral adrenergic stimulation, overall [13] | hypothermia induced by apomorphine (mice [15]) | hypothermia induced by oxotremorine (mice [16]) | further results
CC(=O)Nc1ccc(C(=O)C(C)NC(C)(C)C)cc1 (centres unmarked) [CRL 41 177] | excitation with hyperreactivity in mice | antagonism of the sleep induced by barbital | an increase in the spontaneous motility in mice | antagonism of the hypothermia induced by apomorphine, oxotremorine or reserpine | antagonism of the ptosis induced by reserpine | potentiation of the stereotypies induced by apomorphine | stimulant effects; also recorded: antidepressant effects | a resumption in the motor activity of mice accustomed to their enclosure | stereotype movements in rats | a reduction in the immobility | an improvement in the motor recovery in mice after acute hypoxia | potentiation of the stereotypies induced by apomorphine or amphetamine | absent | mydriasis | effects which may reflect peripheral adrenergic stimulation | antagonism of the hypothermia induced by apomorphine | antagonism of the hypothermia induced by apomorphine, oxotremorine | interaction with barbital, gastric versus intraperitoneal (mice [2]; male mice, gastric): greater than on intraperitoneal administration; convulsant effects of electric shock (mice [3]; dose not stated): potentiate the convulsant effects of electric shock; effect on spontaneous motility, gastric versus intraperitoneal (mice [4]; male mice, gastric): greater than on intraperitoneal administration; toxicity to grouped mice compared with isolated mice (mice [9]): do not increase the toxicity to grouped mice; clinical result: antidepressant (man): excellent antidepressant drug; salivation [13]: absent; suppression of induced stereotype movements by prior injection of alpha-methyltyrosine (rats [14]): not suppressed; trembling caused by oxotremorine (mice [16]): antagonism of the trembling caused by oxotremorine
CC(=O)Nc1ccc(C(=O)C(C)N2CCCCC2)cc1 (centres unmarked) [CRL 41 240, 1-(4-acetylaminophenyl)-2-piperidinopropanone hydrochloride] | excitation in mice | very distinct antagonism of the sleep induced by barbital | increase in the motor activity | antagonism of the hypothermia induced by apomorphine, reserpine | antagonism of the ptosis induced by reserpine | potentiation of the stereotypies induced by apomorphine | behaves as an antidepressant and stimulant for the CNS | resumption in the activity of mice accustomed to their enclosure | presence of stereotype movements | reduction in the period of immobility | improvement in the motor recovery | potentiation of the stereotypies induced by apomorphine and amphetamine | exophthalmos | mydriasis | peripheral α-adrenergic stimulation | antagonism of the hypothermia induced by apomorphine | antagonism of the hypothermia induced by apomorphine, reserpine and oxotremorine | stereotype movements in mice (mice [1]): presence of stereotype movements; immunological properties, overall (immunological properties): beneficial immunomodulating effects; convulsant effects of electric shock (mice [3]; strong/high dose): antagonism of the convulsant effects of electric shock; LD-0 (maximum non-lethal dose) (male mice): greater than 256 mg/kg; excitation in rats (rats [8]): excitation in mice and rats; minimal effective dose ([17]; Mus musculus, female OF1 mice, read-out: lowest immunologically active dose): 0.1 mg/kg; activity index I ([17]; 0.01 mg/kg): 1.23; counts ± e.s.m. (lysis areas per spleen) ([17]; 0.01 mg/kg): 64.5 ± 11.99 m.10^3 /rate; activity index I ([17]; 0.1 mg/kg): 1.25; counts ± e.s.m. (lysis areas per spleen) ([17]; 0.1 mg/kg): 65.7 ± 11.60 m.10^3 /rate; activity index I ([17]; 10 mg/kg): 1.52; counts ± e.s.m. (lysis areas per spleen) ([17]; 10 mg/kg): 79.4 ± 11.54 m.10^3 /rate; activity index I ([17]; 100 mg/kg): 1.31; counts ± e.s.m. (lysis areas per spleen) ([17]; 100 mg/kg): 68.8 ± 7.21 m.10^3 /rate; time taken for asphyxiant convulsions (and death) to occur (mice [18]): increase in the time taken for asphyxiant convulsions to occur; activity index I [19]: 1.65; counts ± e.s.m. (lysis areas per spleen) [19]: 86.5 ± 13.74 m.10^3 /rate
